Measurements published in ChEMBL document CHEMBL3046001, “4-Thiazolidinone and 1-thia-3,4,9-triaza fluorene conjugates: synthesis, characterization and antimicrobial screening” (2013).
≈ marks a conversion by molar mass, not a printed value.

Tests used:
Type in all cases: functional
Penicillium chrysogenum [1] = assay: Antifungal activity against Penicillium chrysogenum MTCC 161 assessed as growth inhibition after 24 hr by tube dilution method; details: MTCC 161, 24 h
Aspergillus niger [2] = assay: Antifungal activity against Aspergillus niger MTCC 2546 assessed as growth inhibition after 24 hr by tube dilution method; details: MTCC 2546, 24 h
Aspergillus niger [3] = assay: Antifungal activity against Aspergillus niger MTCC 2546 assessed as growth inhibition at 10 ug/mL after 48 hr by agar diffusion method; details: MTCC 2546, 48 h, read-out: DIZ
Penicillium chrysogenum [4] = assay: Antifungal activity against Penicillium chrysogenum MTCC 161 assessed as growth inhibition at 10 ug/mL after 48 hr by agar diffusion method; details: MTCC 161, 48 h, read-out: DIZ
Staphylococcus aureus [5] = assay: Antibacterial activity against Staphylococcus aureus MTCC 1430 assessed as growth inhibition after 24 hr by tube dilution method; details: MTCC 1430, 24 h
Pseudomonas fluorescens [6] = assay: Antibacterial activity against Pseudomonas fluorescens MTCC 2421 assessed as growth inhibition at 10 ug/mL after 48 hr by agar diffusion method; details: MTCC 2421, 48 h, read-out: DIZ
Bacillus subtilis [7] = assay: Antibacterial activity against Bacillus subtilis MTCC 441 assessed as growth inhibition at 10 ug/mL after 48 hr by agar diffusion method; details: MTCC 441, 48 h, read-out: DIZ
Escherichia coli = assay: Antibacterial activity against Escherichia coli MTCC 1573 assessed as growth inhibition at 10 ug/mL after 48 hr by agar diffusion method; details: MTCC 1573, 48 h, read-out: DIZ
Bacillus pumilus [8] = assay: Antibacterial activity against Bacillus pumilus MTCC 1456 assessed as growth inhibition after 24 hr by tube dilution method; details: MTCC 1456, 24 h
Bacillus pumilus [9] = assay: Antibacterial activity against Bacillus pumilus MTCC 1456 assessed as growth inhibition at 10 ug/mL after 48 hr by agar diffusion method; details: MTCC 1456, 48 h, read-out: DIZ
Micrococcus luteus [10] = assay: Antibacterial activity against Micrococcus luteus MTCC 1538 assessed as growth inhibition after 24 hr by tube dilution method; details: MTCC 1538, 24 h
Pseudomonas aeruginosa [11] = assay: Antibacterial activity against Pseudomonas aeruginosa MTCC 424 assessed as growth inhibition after 24 hr by tube dilution method; details: MTCC 424, 24 h
Bacillus subtilis [12] = assay: Antibacterial activity against Bacillus subtilis MTCC 441 assessed as growth inhibition after 24 hr by tube dilution method; details: MTCC 441, 24 h
Pseudomonas aeruginosa [13] = assay: Antibacterial activity against Pseudomonas aeruginosa MTCC 424 assessed as growth inhibition at 10 ug/mL after 48 hr by agar diffusion method; details: MTCC 424, 48 h, read-out: DIZ
Pseudomonas fluorescens [14] = assay: Antibacterial activity against Pseudomonas fluorescens MTCC 2421 assessed as growth inhibition after 24 hr by tube dilution method; details: MTCC 2421, 24 h
Micrococcus luteus [15] = assay: Antibacterial activity against Micrococcus luteus MTCC 1538 assessed as growth inhibition at 10 ug/mL after 48 hr by agar diffusion method; details: MTCC 1538, 48 h, read-out: DIZ
Staphylococcus aureus [16] = assay: Antibacterial activity against Staphylococcus aureus MTCC 1430 assessed as growth inhibition at 10 ug/mL after 48 hr by agar diffusion method; details: MTCC 1430, 48 h, read-out: DIZ

SMILES	MIC (Penicillium chrysogenum [1])	MIC (Aspergillus niger [2])	zone of inhibition at 10 µg/mL (Aspergillus niger [3])	zone of inhibition at 10 µg/mL (Penicillium chrysogenum [4])	MIC (Staphylococcus aureus [5])	zone of inhibition at 10 µg/mL (Pseudomonas fluorescens [6])	zone of inhibition at 10 µg/mL (Bacillus subtilis [7])	zone of inhibition at 10 µg/mL (Escherichia coli)	MIC (Bacillus pumilus [8])	zone of inhibition at 10 µg/mL (Bacillus pumilus [9])	MIC (Micrococcus luteus [10])	MIC (Pseudomonas aeruginosa [11])	MIC (Bacillus subtilis [12])	zone of inhibition at 10 µg/mL (Pseudomonas aeruginosa [13])	MIC (Pseudomonas fluorescens [14])	zone of inhibition at 10 µg/mL (Micrococcus luteus [15])	zone of inhibition at 10 µg/mL (Staphylococcus aureus [16])
OC(Cn1cncn1)(Cn1cncn1)c1ccc(F)cc1F [FLUCONAZOLE]	1.25 µg/mL (≈ 4.08 µM)	2.5 µg/mL (≈ 8.16 µM)	22 mm	23 mm													
CCn1cc(C(=O)O)c(=O)c2cc(F)c(N3CCNCC3)cc21 [NORFLOXACIN]					5 µg/mL (≈ 15.7 µM)	27 mm	25 mm	25 mm	1.25 µg/mL (≈ 3.91 µM)	30 mm	2.5 µg/mL (≈ 7.83 µM)	2.5 µg/mL (≈ 7.83 µM)	2.5 µg/mL (≈ 7.83 µM)	26 mm	2.5 µg/mL (≈ 7.83 µM)	24 mm	22 mm
